Patent US9132071B2, “Compositions containing quaternary ammonium compounds” (SANTEN SAS, priority 2006, dated 2015)

Assays:
[1] = Emulsion droplet size by dynamic light scattering; format: physicochemical; settings: 25° C., diluted in double distilled water
Procedure: Measurements are performed at 25° C. following dilution of the emulsion in double distilled water.

[2] = Emulsion zeta potential by electrophoretic mobility; format: physicochemical; settings: 25° C., dilution 1:250
Procedure: Zeta potential can be measured by a zetameter such as Zetasizer 2000, Malvern Instruments Ltd, UK. The zeta potential of the emulsion droplet surface is determined by electrophoretic mobility. Measurements are performed at 25° C. following dilution at 1:250 of the emulsion in double distilled water. The electrophoretic mobility is converted into zeta potential values through the Smoluchowsky equation.

[3] = tested on: white male New Zealand rabbits; assay: Ocular irritation, adaptation of the Draize test; format: in vivo; settings: BAK C16 within an emulsion; 50 μL instilled, rabbit eye; FIG. 2
Procedure: The ocular irritation of the emulsions and solutions has been evaluated using an adaptation of the Draize test on white male New Zealand rabbits (2.75-3.00 kg). Fifty μL of emulsion or solution were instilled unilaterally and 50 μL of NaCl 0.9% in the other eye of the three rabbits per group. General aspect assessment of the animals was performed (behavior, blinking, itching of the eye with forelegs) as well as eye tissue evaluation (conjunctiva, cornea, iris) after instillation, 1, 24, 48 and 72 hours. Observations were scored according to the Draize test protocol.

| Emulsion droplet size ([1]; emulsion containing 0.01% QA) [nm] | Emulsion droplet size ([1]; emulsion containing 0.02% QA) [nm] | Emulsion droplet size ([1]; emulsion containing 0.04% QA) [nm] | Emulsion droplet size ([1]; emulsion containing 0.1% QA) [nm] | Emulsions zeta potential ([2]; emulsion containing 0.01% QA) | Emulsions zeta potential ([2]; emulsion containing 0.02% QA) | Emulsions zeta potential ([2]; emulsion containing 0.04% QA) | Emulsions zeta potential ([2]; emulsion containing 0.1% QA) | Structure (SMILES) | Emulsion droplet size ([1]; emulsion containing 0.0025% QA) [nm] | Emulsion droplet size ([1]; emulsion containing 0.005% QA) [nm] | Emulsions zeta potential ([2]; emulsion containing 0.0025% QA) | Emulsions zeta potential ([2]; emulsion containing 0.005% QA) | Emulsion droplet size ([1]; emulsion containing 0.001% QA) [nm] | Emulsions zeta potential ([2]; emulsion containing 0.001% QA) | Ocular irritation (toxicity), Draize score [3] |
| --- | --- | --- | --- | --- | --- | --- | --- | --- | --- | --- | --- | --- | --- | --- | --- |
| – | – | – | – | – | – | – | – | CCCCCCCCCCCCCCCC[N+](C)(C)C.[Br-] [ATAB C16, cetyl trimethyl ammonium bromide] | 222 | 212 | +11.9 mV | +20.2 mV | – | – | – |
| 263 | 230 | 225 | 180 | +4.2 mV | +7.9 mV | +16.8 mV | +23.8 mV | CCCCCCCCCCCC[N+](C)(C)Cc1ccccc1 [BAK C12, benzododecinium chloride] | – | 198 | – | −6.9 mV | – | – | – |
| – | – | – | – | – | – | – | – | CCCCCCCCCCCC[N+](C)(C)C.[Br-] [ATAB C12, lauryl trimethyl ammonium bromide] | – | – | −35.5 mV | −14.6 mV | – | – | – |
| 190 | 155 | 238 | 185 | +22.9 mV | +28.4 mV | +39.3 mV | +44.5 mV | CCCCCCCCCCCCCC[N+](C)(C)Cc1ccccc1 [BAK C14, myristalkonium chloride] | 204 | 190 | +11.4 mV | +19.6 mV | – | – | – |

| Structure (SMILES) | Emulsion droplet size ([1]; emulsion containing 0.01% QA) [nm] | Emulsion droplet size ([1]; emulsion containing 0.02% QA) [nm] | Emulsion droplet size ([1]; emulsion containing 0.04% QA) [nm] | Emulsion droplet size ([1]; emulsion containing 0.1% QA) [nm] | Emulsions zeta potential ([2]; emulsion containing 0.01% QA) | Emulsions zeta potential ([2]; emulsion containing 0.02% QA) | Emulsions zeta potential ([2]; emulsion containing 0.04% QA) | Emulsions zeta potential ([2]; emulsion containing 0.1% QA) | Emulsion droplet size ([1]; emulsion containing 0.0025% QA) [nm] | Emulsion droplet size ([1]; emulsion containing 0.005% QA) [nm] | Emulsions zeta potential ([2]; emulsion containing 0.0025% QA) | Emulsions zeta potential ([2]; emulsion containing 0.005% QA) | Emulsion droplet size ([1]; emulsion containing 0.001% QA) [nm] | Emulsions zeta potential ([2]; emulsion containing 0.001% QA) | Ocular irritation (toxicity), Draize score [3] |
| --- | --- | --- | --- | --- | --- | --- | --- | --- | --- | --- | --- | --- | --- | --- | --- |
| CCCCCCCCCCCCCCCC[N+](C)(C)Cc1ccccc1 [BAK C16, cetylkonium chloride] | 180 | 155 | 188 | 183 | +36.7 mV | +44.1 mV | +47.2 mV | +48.9 mV | 210 | 148 | +24.4 mV | +31.4 mV | 220 | +16.2 mV | unexpected decrease of its toxicity |
